Measurements as given in the NIST ThermoML archive (doi:10.1021/acs.jced.8b00715).
± gives the expanded uncertainty stated by the source. Blank lines part the entries; values can stand above or below the compound they belong to.

What was measured:
[1] = refractive index (Na D-line) (dimensionless); wn = mass fraction of the nth substance listed; conditions: 298.15 K, 100 kPa, Liquid, Standard Abbe refractometry
[2] = wn = mass fraction of the nth substance listed; conditions: 298.15 K, 100 kPa, Liquid, Vibrating tube method

refractive index ([1]; w1 = 0.2259): 1.3872 ± 0.0007
mass density ([2]; w1 = 0.2259): 1267.8 ± 1.1 kg/m3
SMILES: O=B[O-].[Na+] [sodium metaborate] + O

refractive index ([1]; w1 = 0.2645): 1.3796 ± 0.0015
mass density ([2]; w1 = 0.2645): 1198.1 ± 5.6 kg/m3
SMILES: [Cl-].[Na+] [sodium chloride] + O

refractive index ([1]; w1 = 0.219): 1.3626 ± 0.002
mass density ([2]; w1 = 0.219): 1204.85 ± 14 kg/m3
SMILES: O=S(=O)([O-])[O-].[Na+].[Na+] [sodium sulfate] + O
